Laboratory results: ChEMBL document CHEMBL1144516, “Synthesis and biological activities of analogs of D-glucosyl-l-tyrosine, a humoral factor that stimulates transcription of the acyl-CoA binding protein in the pheromone gland of the Silkmoth, Bombyx mori” (Bioorg Med Chem, 2007)
Active and inactive are the calls of the source. The rule behind the calls is not given here.

The compounds below were run on Bombyx mori (assay: Stimulation of transcription of acyl-CoA binding protein in pheromone gland of Silkmoth P50 at 0.2 mg after 18 hrs).
Format: functional, organism-based

Row | Activity | Structure (SMILES)
1 | inactive | N[C@H](Cc1ccc(O[C@H]2O[C@@H](CO)[C@H](O)[C@@H](O)[C@@H]2O)cc1)C(=O)O
2 | inactive | N[C@H](Cc1ccc(O[C@@H]2O[C@H](CO)[C@H](O)[C@H](O)[C@H]2O)cc1)C(=O)O
3 | inactive | N[C@H](Cc1ccc(OC2O[C@H](CO)[C@@H](O)[C@H](O)[C@H]2O)cc1)C(=O)O (stereo not given in full)
4 | Active | N[C@@H](Cc1ccc(O[C@@H]2O[C@H](CO)[C@H](O)[C@H](O)[C@H]2O)cc1)C(=O)O
5 | inactive | N[C@@H](Cc1ccc(O[C@H]2O[C@@H](CO)[C@H](O)[C@@H](O)[C@@H]2O)cc1)C(=O)O
